# From EPA's ToxValDB 9.5 (doi:10.2903/j.efsa.2008.175r)
# What was measured:
# [1] = system: Colinus virginianus; details: acute; oral; mortality
# [2] = system: Rattus norvegicus; details: for NOAEL: reproduction developmental, reproduction
# [3] = system: Coturnix coturnix; details: reproduction developmental
# [4] = system: Typhlodromus pyri; assay: LR50; higher = less toxic; details: not reported; mortality
# [5] = system: Oncorhynchus mykiss; details: acute; duration: 96 hours; mortality
# [6] = system: Oryctolagus sp.
# [7] = system: Bibionidae; details: chronic/long-term
# [8] = system: Pimephales promelas; details: chronic/long-term; duration: 30 days
# [9] = system: Tagia sp.
# [10] = system: Folsomia candida; details: chronic/long-term; duration: 4 weeks
# [11] = system: Daphnia magna; details: chronic/long-term; duration: 21 days; reproduction
# [12] = system: Canidae; details: oral, Dog Other, organ weight
# [13] = system: Plant; details: not reported; seedling emergence
# [14] = system: Anas platyrhynchos; details: for LD50: oral, mortality
smiles,measurement,setting,value
"NC(Cc1ncn[nH]1)C(=O)O (configuration not stated) [1,2,4-Triazole-3-alanine]",LD50,[1],> 1340 mg/kg-day
same,LD50,"[2]; acute, oral, mortality",> 5000 mg/kg-day
same,NOAEL,[2],100 mg/kg-day
"c1nc[nH]n1 [1H-1,2,4-Triazole]",NOEL,[3],> 316 mg/kg-day
CCCC(Cn1cncn1)c1ccc(Cl)cc1Cl (configuration not stated) [Penconazole],LR50,[4],100 g/ha
same,LC50,[5],1.13 µg/mL
same,LD50,"[6]; acute, oral, mortality",971 mg/kg-day
same,NOAEL,"[6]; developmental, development",50 mg/kg-day
same,NOEC,[7],25.2 mg/kg
same,NOEC,[7]; duration: 28 days,0.8 mg/L
same,NOAEL,[2],20 mg/kg-day
same,NOEC,[8],0.32 mg/L
same,LC50,"[9]; acute, duration: 14 days, mortality",> 663 mg/kg
same,NOEC,"[9]; chronic/long-term, duration: 56 days",> 0.34 mg/kg
same,NOEC,[10],98.8 mg/kg
same,NOEC,[11],0.06 mg/L
same,NOAEL,"[12]; chronic, duration: 1 years",3 mg/kg-day
same,NOAEL,"[12]; subchronic, duration: 90 days",3 mg/kg-day
same,LEL,[13],30 g/ha
same,LD50,"[14]; acute, unspecified",> 1590 mg/kg-day
same,NOEL,[14]; reproductive,28.6 mg/kg-day
same,LD50,"[14]; short-term, feed",> 1840 mg/kg-day
